In publication PMC6112376, “Comprehensive Analyses and Prioritization of Tox21 10K Chemicals Affecting Mitochondrial Function by in-Depth Mechanistic Studies” (Environmental Health Perspectives, 2018):
Where a name gives a salt, the structure may show the parent alone. Read-outs that look alike come from different tables or passages of the source.

Assays:
rat primary hepatocytes [1] = assay: MMP assay in rat primary hepatocytes; conditions: for IC50: Rattus norvegicus, Hepatocyte
HepG2 cells [2] = conditions: cited from earlier work
HepG2 cells [3] = assay: cells; conditions: Homo sapiens; for Emax: HepG2, read-out: MMP assays efficacy (%) HepG2
rat primary hepatocytes [4] = tested on: rat primary hepatocytes
[5] = read-out: MMP assays IC50 (µM) qHTS-HepG2
[6] = HepG2, read-out: MMP assays IC50 (µM) HepG2
[7] = read-out: MMP assays IC50 (µM) Rat Hepatocytes
[8] = read-out: MMP assays IC50 (µM), qHTS-HepG2

SMILES	MMP assays IC50 (µM) Rat Hepatocytes (rat primary hepatocytes [1])	MMP assays efficacy (%) qHTS-HepG2 (HepG2 cells [2])	IC50 (HepG2 cells [2]; [5])	IC50 (HepG2 cells [3]; [6])	Emax (HepG2 cells [3])	MMP assays efficacy (%) Rat Hepatocytes (rat primary hepatocytes [4])	IC50 (rat primary hepatocytes [1]; [7])	IC50 (HepG2 cells [2]; [8])	IC50 (rat primary hepatocytes [1]; 1 h, read-out: IC50 in rat primary hepatocytes (MMP, tier-one retest))	IC50 (HepG2 cells [3]; HepG2, read-out: IC50 in HepG2 cells (MMP, tier-one retest))
CCOc1nc2cccc(C(=O)OC(C)OC(=O)OC3CCCCC3)c2n1Cc1ccc(-c2ccccc2-c2nnn[nH]2)cc1 (stereo not shown) [Candesartan cilexetil]	inactive	-124±13%	15.9 ± 4.62 µM	11.2 µM	101%	inactive				
Oc1cc(Cl)ccc1Oc1ccc(Cl)cc1Cl [Triclosan]		-101±5%		6.15 µM	123%	-58±19%	15.2 ± 13.5 µM	1.5 ± 0.88 µM		
Oc1ccc(Cl)c(Cl)c1 [3,4-Dichlorophenol]		-104±7%	9.18 ± 2.63 µM	15.8 µM	114%	-45±32%	53.9 ± 13 µM			
O=C1c2ccccc2C(=O)c2c1ccc(O)c2O [Alizarin]		-101±8%	11 ± 1.41 µM	13.8 µM	94%	-80±8%	11.9 ± 7.79 µM			
O=C(CC(=O)c1ccccc1)c1ccccc1 [1,3-Diphenyl-1,3-propanedione]		-75±15%	11.7 ± 1.35 µM	35.5 µM	121%	-84±43%	39.8 ± 14.2 µM			
CC(C)(C)c1cc([N+](=O)[O-])cc(C(C)(C)C)c1O [2,6-di-tert-butyl-4-nitrophenol]		-96±13%	0.17 ± 0.05 µM		108%	-109±11%			0.29 µM	0.11 µM
C[C@H]1CCCC(=O)CCC/C=C/c2cc(O)cc(O)c2C(=O)O1 [Zearalenone]		-110±22%		5.84 µM	115%	-68±24%	22 ± 1.79 µM	4.67 ± 1.77 µM		
Oc1cc(Cl)c(Cl)c(Cl)c1 [3,4,5-Trichlorophenol]			3.8 ± 1.74 µM	5.01 µM	96%	-100±4%	33.8 ± 17.2 µM			
CCCCC(=O)O[C@]1(C(=O)CO)[C@H](C)C[C@H]2[C@@H]3CCC4=CC(=O)C=C[C@]4(C)[C@@]3(F)[C@@H](O)C[C@@]21C [Dexamethasone valerate]		-74±6%	12.1 ± 4.39 µM	17.3 µM	114%	-66±25%	23.5 ± 5.67 µM			
CO[C@H]1C[C@@H]2CC[C@@H](C)[C@@](O)(O2)C(=O)C(=O)N2CCCC[C@H]2C(=O)O[C@H]([C@H](C)C[C@@H]2CC[C@@H](O)[C@H](OC)C2)CC(=O)[C@H](C)/C=C(\C)[C@@H](O)[C@@H](OC)C(=O)[C@H](C)C[C@H](C)/C=C/C=C/C=C/1C [Sirolimus]		-95±3%		17.3 µM	95%	-61±8%	20.6 ± 1.68 µM	20.1 ± 2.07 µM		
CO[C@H]1C[C@@H]2CC[C@@H](C)[C@@](O)(O2)C(=O)C(=O)N2CCCC[C@H]2C(=O)O[C@H]([C@H](C)C[C@@H]2CC[C@@H](OCCO)[C@H](OC)C2)CC(=O)[C@H](C)/C=C(\C)[C@@H](O)[C@@H](OC)C(=O)[C@H](C)C[C@H](C)/C=C/C=C/C=C/1C [Everolimus]		-96±20%	19.9 ± 2.83 µM	27.5 µM	92%	-38±9%	13 ± 7.49 µM			
O=c1[nH]sc2ccccc12 [1,2-Benzisothiazolin-3-one]	inactive	-81±19%	38.6 ± 13.7 µM	17.8 µM	118%	inactive				
CCC[C@@]1(CCc2ccccc2)CC(O)=C([C@H](CC)c2cccc(NS(=O)(=O)c3ccc(C(F)(F)F)cn3)c2)C(=O)O1 [Tipranavir]		-93±5%		17.3 µM	100%	-96±11%	29.2 ± 2.37 µM	26.6 ± 4.94 µM		
Oc1c(Cl)cc(Cl)c(Cl)c1Cc1c(O)c(Cl)cc(Cl)c1Cl [Hexachlorophene]		-101±7%		0.63 µM	115%	-103±31%	1 ± 0.74 µM	0.7 ± 0.46 µM		
O=Nc1ccc(O)cc1 [Compound 4-Nitrosophenol]	inactive	-87±9%	4.71 ± 2.31 µM	15.8 µM	61%	inactive				
CC[C@@]1(O)C[C@H](O[C@H]2C[C@H](N(C)C)[C@H](O[C@H]3C[C@H](O)[C@H](O[C@H]4CCC(=O)[C@H](C)O4)[C@H](C)O3)[C@H](C)O2)c2c(cc3c(c2O)C(=O)c2c(O)cccc2C3=O)[C@H]1C(=O)OC [Aclarubicin hydrochloride]		-70±15%	3.15 ± 2.82 µM	2.45 µM	39%	-49±12%	6.89 ± 9.73 µM			
Oc1c(Br)c(Br)c(Br)c(Br)c1Br [Pentabromophenol]		-104±8%		7.94 µM	106%	-93±13%	4.98 ± 2.48 µM	3.46 ± 0.99 µM		
CCCCCc1ccc(C)cc1O [Amylmetacresol]	inactive	-109±16%	11.2 ± 0.65 µM		115%	inactive				
CN(C)c1ccc(N)cc1 [N,N-Dimethyl-p-phenylenediamine]		-100±15%		7.08 µM	109%	-69±29%	21.7 ± 15.7 µM	9.1 ± 0.59 µM		
